Laboratory results published in ChEMBL document CHEMBL1138347, “Multi-target-directed drug design strategy: from a dual binding site acetylcholinesterase inhibitor to a trifunctional compound against Alzheimer's disease” (J Med Chem, 2007).

What was measured:
[1] = molecular target: Acetylcholinesterase (Homo sapiens, UniProt P22303)
Description: Inhibition of human serum recombinant AChE by Ellman's method

[2] = molecular target: Cholinesterase (Homo sapiens, UniProt P06276)
Description: Inhibition of human serum recombinant BChE by Ellman's method

[3] = Inhibition of human AChE-induced amyloid-beta (1-40) aggregation by thioflavin T fluorescene method

Sequence of Cholinesterase (P06276 whole entry): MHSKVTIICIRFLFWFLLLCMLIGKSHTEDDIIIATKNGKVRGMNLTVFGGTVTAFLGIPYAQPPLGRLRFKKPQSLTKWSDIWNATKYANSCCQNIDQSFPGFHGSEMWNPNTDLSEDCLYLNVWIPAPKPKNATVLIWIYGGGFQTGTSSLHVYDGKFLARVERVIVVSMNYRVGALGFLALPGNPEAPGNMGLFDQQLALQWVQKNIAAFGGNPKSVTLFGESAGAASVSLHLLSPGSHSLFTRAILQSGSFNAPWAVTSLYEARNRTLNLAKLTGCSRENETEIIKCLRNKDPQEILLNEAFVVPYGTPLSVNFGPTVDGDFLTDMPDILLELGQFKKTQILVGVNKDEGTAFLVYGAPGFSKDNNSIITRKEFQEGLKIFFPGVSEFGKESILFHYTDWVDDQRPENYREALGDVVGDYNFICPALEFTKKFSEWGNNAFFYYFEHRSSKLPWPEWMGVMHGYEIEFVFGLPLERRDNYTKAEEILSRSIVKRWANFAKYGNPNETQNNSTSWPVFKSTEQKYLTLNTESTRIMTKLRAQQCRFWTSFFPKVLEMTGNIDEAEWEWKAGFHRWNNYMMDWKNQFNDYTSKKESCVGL
Sequence of Acetylcholinesterase (P22303 whole entry): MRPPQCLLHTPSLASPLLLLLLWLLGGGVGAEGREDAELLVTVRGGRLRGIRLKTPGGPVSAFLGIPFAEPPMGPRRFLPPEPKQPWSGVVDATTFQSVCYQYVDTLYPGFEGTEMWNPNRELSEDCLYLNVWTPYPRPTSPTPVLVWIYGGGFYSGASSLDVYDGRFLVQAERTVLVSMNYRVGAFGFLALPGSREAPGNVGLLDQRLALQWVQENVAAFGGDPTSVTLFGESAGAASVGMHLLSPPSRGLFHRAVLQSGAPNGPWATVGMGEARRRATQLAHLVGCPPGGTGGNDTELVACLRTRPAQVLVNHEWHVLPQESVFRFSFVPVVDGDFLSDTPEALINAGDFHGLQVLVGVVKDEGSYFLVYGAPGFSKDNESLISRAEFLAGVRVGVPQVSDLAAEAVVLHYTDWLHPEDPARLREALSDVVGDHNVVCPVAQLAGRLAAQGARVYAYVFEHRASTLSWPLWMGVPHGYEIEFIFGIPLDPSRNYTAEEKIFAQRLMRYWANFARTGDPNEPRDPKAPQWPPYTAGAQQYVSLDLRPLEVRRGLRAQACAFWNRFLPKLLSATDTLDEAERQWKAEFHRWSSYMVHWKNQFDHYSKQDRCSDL

Structure (SMILES)	IC50 [1]	IC50 [2]	IC50 [3]
c1ccc2c(NCCOCCOCCNc3c4c(nc5ccccc35)CCCC4)c3c(nc2c1)CCCC3	19.7 nM	35.1 nM	–
O=C(NCCNc1c2c(nc3ccccc13)CCCC2)C(=O)NCCNc1c2c(nc3ccccc13)CCCC2	6.65 nM	5.44 nM	–
c1ccc2c(NCCCCCCCNc3c4c(nc5ccccc35)CCCC4)c3c(nc2c1)CCCC3	–	5.66 nM	41.7 µM
O=C(CCCNc1c2c(nc3ccccc13)CCCC2)CCCNc1c2c(nc3ccccc13)CCCC2	–	11.3 nM	–
